# Experimental data taken from patent US20180273970A1, “PLASMID, TRANSFORMED PLANT CELL AND TRANSGENIC PLANT COMPRISING THE SAME, AND METHODS FOR PREPARING A TRANSGENIC PLANT AND FOR INCREASING YIELD OF A PLANT UNDER ABIOTIC STRESSES” (Academia Sinica, priority 2014, published 2018).
# What was measured:
# SKIN-GFP = assay: Cellular localization of SKIN-GFP in transfected barley aleurones (confocal microscopy); assay type: cell-based; settings: −S medium containing ABA, 48 h
# Method: FIG. 10. ABA restricts SKINs, SnRK1A and MYBS1 in the cytoplasm under sugar starvation. Barley aleurones were co-transfected with indicated plasmid constructs and incubated in +S or −S medium with ABA (+ABA) or without ABA (−ABA) for 48 h. Thirty optical sections of 0.9-1.1 μm thickness were prepared for each cell and only five regularly spaced sections (sections 3, 9, 15, 21 and 27) are shown here. C and N indicate higher GFP signals, and c and n indicate lower GFP signals in the cytoplasm and nucleus, respectively. For more section images of each cell, see also FIG. 22 online. (A) Barley aleurones were transfected with Ubi:SKIN1-GFP, Ubi:SKIN2-GFP, Ubi:SnRK1A-GFP or Ubi:MYBS1-GFP alone. (B) Barley aleurones were transfected with Ubi.MYBS1-GFP alone (panel 1) or co-transfected with Ubi.MYBS1-GFP and Ubi:SnRK1A (panel 2), or with Ubi.MYBS1-GFP and Ubi:SnRK1A(Ri) (panel 3). (C) Barley aleurones were co-transfected with Ubi:SnRK1A-GFP and Ubi:SKIN(Ri). (D) Wild type rice (WT) or transgenic rice overexpression Ubi:SKIN(Ri) were transfected with Ubi:SnRK1A-GFP (panels 1-3) or Ubi.MYBS1-GFP (panels 4-6).
# Detection of cellular localization of SKIN-GFP, SnRK1A-GFP and MYBS1-GFP fusion proteins were performed as described (Hong et al., 2012). […]
# SKIN1 = assay: Quantitative RT-PCR of SKIN1 mRNA in leaves of 2-week-old rice seedlings after stress or ABA; assay type: in vivo; settings: 24 h after 1 μM ABA
# Method: FIG. 9. The expression of SKIN is induced by various abiotic stresses and ABA, and SKINs promote the ABA sensitivity. (A) Total RNA was purified from leaves of 2-week-old rice seedlings that had been air dried, treated with 200 mM salt, incubated at 4° C., or treated with 1 μM ABA, or from embryos of seedlings grown underwater (hypoxia), for various lengths of time. RNAs were subjected to quantitative RT-PCR analysis using primers specific for SKIN1 and SKIN2. The highest mRNA level was set as 100%. The lowest mRNA level was assigned a value of 1× and mRNA levels of other samples were calculated relative to this value. Error bars indicate the SE for three replicate experiments. (B) Seeds of transgenic lines SKIN1-Ox(O3), SKIN1-Ri(R3), SKIN2-Ox(02) and SKIN2-Ri(R1) were germinated and grown in water containing various concentrations of ABA at 28° C. under a 14-h light/10-h dark cycle for 6 days. Lengths of shoots were measured. Error bars represent SE (n=8) at significance levels: * p<0.1, ** p<0.05. […]
# Total RNA was extracted from leaves of rice seedlings with the Trizol reagent (Invitrogen) and treated with RNase-free DNase I (Promega, Madison, Wis.). […] The quantitative variation between different samples was evaluated by the delta-delta CT method, and the amplification of 18S ribosomal RNA was used as an internal control to normalize all data.
# [1] = system: interaction between SnRK1A and SKINs; assay: Rice embryo GAL4-UAS two-hybrid assay (luciferase); assay type: cell-based; settings: rice embryos, −S medium containing 1 μM ABA
# Method: FIG. 2. The N-terminus of SKIN interacts with the kinase domain of SnRK1A. For the GAL4-UAS two-hybrid assay, rice embryos were co-transfected with effector and reporter plasmids, incubated in −S medium for 24 h, and assayed for luciferase activity. The luciferase activity in rice embryos bombarded with effectors Ubi:GAD, Ubi:GBD and reporter 5XUAS-35S mp:Luc was set to 1×, and other values were calculated relative to this value. Error bars indicate the SE for three replicate experiments. Significance levels: * p<0.1, ** p<0.05. The Y axis indicates the relative luciferase activity with different constructs. (A) Plasmid constructs. (B) Rice embryos were co-transfected with effectors Ubi:GAD-SnRK1A and Ubi:GBD-SKIN (wild type or truncated) and reporter 5XUAS-35S mp:Luc. (C) Rice embryos were co-transfected with effectors Ubi:GAD-SnRK1A [wild type, kinase domain (KD) or regulatory (RD)], Ubi:GBD-SKIN and reporter 5XUAS-35S mp:Luc. (D) Rice embryos were co-transfected with effectors Ubi:GAD-SnRK1A and Ubi:GBD-SKIN and reporter 5XUAS-35S mp:Luc, and incubated in −S medium containing 1 μM ABA.
# Rice embryos were prepared for particle bombardment as described (Chen et al., 2006). The rice embryos were bombarded with reporter, effectors and internal control at a ratio of 4:2:1 for single effector or 4:2:2:1 for two effectors. […]
structure (smiles),measurement,setting,value
"CC1=CC(=O)CC(C)(C)[C@@]1(O)/C=C/C(C)=C\C(=O)O [ABA, abscisic acid]",Localization of SKIN-GFP,SKIN-GFP,exclusively localized in the cytoplasm
same,Induction of SKIN1 mRNA accumulation,SKIN1,≤ 4.2 fold
same,Effect on the interaction between SnRK1A and SKINs,[1],enhanced
